Measurements published in patent US11104657B2, “Notch inhibitors for use in the treatment of t-cell acute lymphoblastic leukemia” (UNIVERSITÀ DEGLI STUDI DI ROMA “LA SAPIENZA”, priority 2016, dated 2021).
Like-named read-outs stand apart in the source and are kept apart here.

How the values were obtained:
[1] = test system: DND41 cells; test: MTS cell proliferation assay (IG50), DND41; format: cell-based, human; settings: for IC50: Homo sapiens
Protocol: In order to evaluate the biological implications of the compounds, their effect on cell proliferation/vitality was tested by determining the relative concentrations of growth inhibition (IG50) by means of the MTS cellular assay.
(§1) The cell lines DND41 (ACC 525, DSMZ, Braunschweig, GERMANY), KOPTK1 (RRID: CVCL_4965) were maintained in culture in RPMI-1640 (Gibco, Carlsbad, Calif., USA) with 10% fetal bovine serum. TALL-1 cells (ACC-521: DSMZ, Braunschweig, GERMANY) were cultured in RPMI-1640 (Gibco, Carlsbad, Calif., USA) supplemented with 20% fetal bovine serum, while HaCaT cells (ACC-771: DSMZ, Braunschweig, GERMANY) were maintained in Eagle's culture medium according to Dulbecco (Gibco, Carlsbad, Calif., USA) containing 10% fetal bovine serum. Cells were treated with the naturally-occurring compounds A-H or with compounds 1-17 for times and concentrations indicated in the text.
Cells were seeded in 96-well plates with a density of 5×10^5 cells/ml (5×10^4 cells per well) and treated for the times and the concentrations of the various compounds, as indicated in the text.
(§2) All treatments were carried out in triplicate, including control treatments. All treatment reactions contained a final concentration of 1% DMSO (D5879; Sigma-Aldrich, St Louis, Mo., USA). To quantify vitality, cells were assayed by the MTS CellTiter 96® AQueous One Solution Cell Proliferation Assay (G3580; Promega, Madison, Wis., USA). Absorbance was detected at 490 nm using the GloMax Multidetection System instrument (Promega, Madison, Wis., USA). Data were collected in the form of absorbance units (ABSs) and standardized to obtain the proliferation rate (MTS) through the equation: % cell proliferation=(ABScell culture+compound−ABSculture medium+compound/(ABScell culture+DMSO−ABSculture medium+DMSO)×100.
The 50% inhibition concentration was calculated using the GraphPad Prism software program (GraphPad Software Inc., La Jolla, Calif., USA).

[2] = test system: KOPTK1 cells; test: MTS cell proliferation assay, KOPTK1; format: cell-based; settings: Homo sapiens
Protocol: as §1, with “text. […]” for “text.”
as §2, with “All treatment reactions contained a final concentration of 1% DMSO (D5879; Sigma-Aldrich, St Louis, Mo., USA).” left out, “medium+DMSO)×100. […]” for “medium+DMSO)×100.”

[3] = test system: TALL-1 cells; test: MTS cell proliferation assay, TALL-1; format: cell-based; settings: Homo sapiens
Protocol: as §1, with “text. […]” for “text.”
as §2, with “All treatment reactions contained a final concentration of 1% DMSO (D5879; Sigma-Aldrich, St Louis, Mo., USA).” left out, “medium+DMSO)×100. […]” for “medium+DMSO)×100.”

[4] = test system: HaCaT keratinocytes; test: MTS cell proliferation assay, HaCaT keratinocytes; format: cell-based; settings: Homo sapiens; immortalized non-tumor HaCaT keratinocytes
Protocol: as §1, with “text. […]” for “text.”
as §2, with “All treatment reactions contained a final concentration of 1% DMSO (D5879; Sigma-Aldrich, St Louis, Mo., USA).” left out, “medium+DMSO)×100. […]” for “medium+DMSO)×100.”

[5] = test system: activated domain of Notch1 in HaCaT cells; test: Western blot of N1VAL expression in HaCaT cells; format: cell-based; settings: 36 hours
Protocol: Laemmli Sample Buffer (161-0737; Bio-Rad Laboratories Inc., Hercules, Calif., USA) was added to each cell pellet. Cells were lysed by ultrasonic sonication and to each mixture 5% 2-mercaptoethanol (161-0710; Bio-Rad Laboratories Inc., Hercules, Calif., USA) was added. Samples were denatured at 100° C. for 5 min and protein mixtures were separated by means of Sodium Dodecyl Sulphate-Polyacrylamide Gel Electrophoresis using 8% acrylamide and transferred onto nitrocellulose membranes. After transfer, the membranes pre-saturated in 5% Blot Dry Fat Milk (1706404; Bio-Rad Laboratories Inc., Hercules, Calif., USA) were incubated for 16 hours at +4° C. with the following primary antibodies diluted at 1:1000 in 5% Dry Fat Milk (1706404; Bio-Rad Laboratories Inc., Hercules, Calif., USA): Notch1Val1744 (2421; Cell Signaling Technology, Beverly, Mass., USA), Notch3 (2889; Cell Signaling Technology, Beverly, Mass., USA) and β-actin (sc-47778; Santa Cruz Biotechnology, Santa Cruz, Calif., USA). Subsequently, filters were incubated for 1 hour at room temperature with the following secondary antibodies: anti-rabbit (sc-2004, Santa Cruz Biotechnology, Santa Cruz, Calif., USA) or anti-mouse (sc-2005, Santa Cruz Biotechnology, Santa Cruz, Calif., USA). […]

[6] = test system: Notch signaling (N1VAL, N3ICD) in DND41 cells; test: Western blot of N1VAL and N3ICD expression in DND41 cells; format: cell-based, human; settings: DND41 cells, 36 hours, 0-50 μM, Western blot
Protocol: In order to identify new naturally-occurring molecular agents able to modulate Notch signaling, the effects on protein expression of the activated domain of Notch1 (N1VAL), and of the intracellular domain of Notch3 (N3ICD), were evaluated in DND41 cells through
Western blotting assays, following treatment for 36 hours with increasing concentrations (0, 1, 5, 10, 20, 50 μM) of the eight molecules (A-H) previously selected. Functional biochemical screening was performed on T-ALL DND41 cells because they are notoriously sensitive to the block of Notch signaling, and characterized by the constitutive and ligand-independent activation of the Notch1 pathway and by the high expression of Notch3. This makes this cell line a useful experimental model for screening putative Notch inhibitors.
In order to investigate the activity and selectivity of action of the 12 synthetic derivatives of butein, and following the screening scheme described in the first design phase, the efficacy of these molecules was analyzed by verifying the effects of 36 hours of treatment at increasing doses on the activation of Notch signaling and on the proliferation in DND41 cells.
Laemmli Sample Buffer (161-0737; Bio-Rad Laboratories Inc., Hercules, Calif., USA) was added to each cell pellet. Cells were lysed by ultrasonic sonication and to each mixture 5% 2-mercaptoethanol (161-0710; Bio-Rad Laboratories Inc., Hercules, Calif., USA) was added. Samples were denatured at 100° C. for 5 min and protein mixtures were separated by means of Sodium Dodecyl Sulphate-Polyacrylamide Gel Electrophoresis using 8% acrylamide and transferred onto nitrocellulose membranes. After transfer, the membranes pre-saturated in 5% Blot Dry Fat Milk (1706404; Bio-Rad Laboratories Inc., Hercules, Calif., USA) were incubated for 16 hours at +4° C. with the following primary antibodies diluted at 1:1000 in 5% Dry Fat Milk (1706404; Bio-Rad Laboratories Inc., Hercules, Calif., USA): Notch1Val1744 (2421; Cell Signaling Technology, Beverly, Mass., USA), Notch3 (2889; Cell Signaling Technology, Beverly, Mass., USA) and β-actin (sc-47778; Santa Cruz Biotechnology, Santa Cruz, Calif., USA). Subsequently, filters were incubated for 1 hour at room temperature with the following secondary antibodies: anti-rabbit (sc-2004, Santa Cruz Biotechnology, Santa Cruz, Calif., USA) or anti-mouse (sc-2005, Santa Cruz Biotechnology, Santa Cruz, Calif., USA). Chemiluminescence signal detection was performed using the ECL Advanced Detection System substrate (RPN2135; E Healthcare UK Limited, Buckinghamshire, UK).

| Structure (SMILES) | IC50 ([1]; 36-hour treatments in DND41 cells, mean of triplicate experiments ± S.D., Table 2, read-out: IG50 ± S.D.) | IC50 ([1]; DND41 cells, MTS assay, 36 hours of treatment, read-out: IG50 (growth inhibition)) | IC50 [2] | IC50 [3] | IC50 [4] | concentration from which expression of the activated domain of Notch1 is significantly reduced [5] | effect on cell proliferation ([1]; DND41 cells, doses of up to 50 μM) | IC50 ([1]; 36-hour treatments in DND41 cells, mean of triplicate experiments ± S.D., Table 1, read-out: IG50 S.D.) | effect on the expression of N1VAL [6] |
| --- | --- | --- | --- | --- | --- | --- | --- | --- | --- |
| COc1ccc(C(=O)/C=C/c2ccc(O)cc2)c(O)c1 [Compound 8, 2′,4-dihydroxy-4′-methoxychalcone] | 1920 ± 1040 nM | 1920 nM | 910 ± 60 nM | 290 ± 20 nM | 48600 ± 8060 nM | ≥ 2.5 µM |  |  |  |
| CC(C)(O)C1Cc2c(ccc3ccc(=O)oc23)O1 (stereo in doubt) [Compound E, (8R)-8-(2-hydroxypropane-2-yl)-8,9-dihydrofuran[2,3-h]chromen-2-one, reference compound] |  |  |  |  |  |  | do not significantly affect cell proliferation | > 50000 nM | did not significantly modulate |
